Broadly, the MIC is the lowest concentration found to suppress growth.

Values after ≈ are worked out from the molar mass of the structure shown.

The source of these data is ChEMBL document CHEMBL4052825, “Identification of Novel Coumestan Derivatives as Polyketide Synthase 13 Inhibitors against Mycobacterium tuberculosis” (J Med Chem, 2018).

Test [1] has as its system Mycobacterium tuberculosis. Nature of the test: Antitubercular activity against resistant Mycobacterium tuberculosis harboring PKS13 mutant after 12 to 24 hrs by MABA. The format is functional. A general note: The colour change of resazurin is a common sign of viable cells or microbes.
A short description of test [2]: Selectivity ratio of MIC=<90 for resistant Mycobacterium tuberculosis harboring PKS13 mutant to MIC=<90 for Mycobacterium tuberculosis H37Rv.
For test [3], the system named is Mycobacterium tuberculosis. Nature of the test: Antitubercular activity against isoniazid/rifampicin/fluoroquinolone-resistant Mycobacterium tuberculosis. It is filed as functional.

For `COc1ccc2c(c1)oc(=O)c1c2oc2ccc(O)c(CN3CCCCC3)c21`, the “MIC=<90” value in test [1] came to 16 µg/mL (≈ 42.2 µM). The Selectivity ratio in test [2] came to 64.
Turning to `O=c1oc2ccccc2c2oc3ccc(O)c(CN4CCCCC4)c3c12`, in test [1], the “MIC=<90” value turned out to be 16 µg/mL (≈ 45.8 µM). In addition, in test [2], the Selectivity ratio lay within 64 to 128.
Compound `CCOC(=O)c1c(NC(=O)c2c(F)c(F)c(F)c(F)c2F)sc2c1CCN(CC)C2` showed an MIC in test [3] of 0.2 to 0.4 µM (≈ 0.0897 to 0.179 µg/mL).
As for `CCOC(=O)c1c(-c2ccc(F)cc2)oc2ccc(O)c(CN3CCCCC3)c12`, the “MIC=<90” value in test [1] was 4 µg/mL (≈ 10.1 µM). The Selectivity ratio in test [2] worked out at 8.
